{
  "source": "paper PMC8869475",
  "about": "(Biomolecules, 2022)",
  "target": "T1, Insulin-Degrading Enzyme (IDE) (Homo sapiens, UniProt P14735)",
  "T1 sequence (P14735 42-1019)": "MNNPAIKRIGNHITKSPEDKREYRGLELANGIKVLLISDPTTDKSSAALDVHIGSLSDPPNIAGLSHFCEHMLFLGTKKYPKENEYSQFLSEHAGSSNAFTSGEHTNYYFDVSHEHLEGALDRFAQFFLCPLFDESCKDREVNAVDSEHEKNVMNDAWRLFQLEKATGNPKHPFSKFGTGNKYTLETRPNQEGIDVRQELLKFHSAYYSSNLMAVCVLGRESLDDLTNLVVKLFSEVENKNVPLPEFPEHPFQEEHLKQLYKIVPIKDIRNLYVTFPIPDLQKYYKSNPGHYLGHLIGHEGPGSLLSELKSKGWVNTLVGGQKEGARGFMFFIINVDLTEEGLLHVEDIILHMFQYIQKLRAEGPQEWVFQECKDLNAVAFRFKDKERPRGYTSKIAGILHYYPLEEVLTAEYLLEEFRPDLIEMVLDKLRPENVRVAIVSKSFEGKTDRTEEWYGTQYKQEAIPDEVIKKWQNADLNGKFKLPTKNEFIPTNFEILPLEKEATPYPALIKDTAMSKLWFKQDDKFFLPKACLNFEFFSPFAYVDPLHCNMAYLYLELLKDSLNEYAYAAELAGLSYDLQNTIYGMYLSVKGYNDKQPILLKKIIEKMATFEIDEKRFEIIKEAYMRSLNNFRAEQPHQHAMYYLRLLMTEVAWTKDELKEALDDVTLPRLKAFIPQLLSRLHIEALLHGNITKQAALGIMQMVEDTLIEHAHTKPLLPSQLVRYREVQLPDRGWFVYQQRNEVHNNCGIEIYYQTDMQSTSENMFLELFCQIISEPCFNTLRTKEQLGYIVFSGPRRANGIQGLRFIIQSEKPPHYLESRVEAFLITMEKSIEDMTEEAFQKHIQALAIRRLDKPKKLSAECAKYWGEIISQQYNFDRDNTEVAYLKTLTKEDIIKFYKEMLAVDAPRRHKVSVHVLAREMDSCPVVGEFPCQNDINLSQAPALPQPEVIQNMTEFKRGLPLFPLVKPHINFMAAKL",
  "experiment": "fluorogenic peptide hydrolysis by purified IDE, two-site kinetic fit; LC-MS of insulin hydrolysis (about […] decrease)",
  "type": "biochemical",
  "data": [
    {"molecule": "CC(C)C[C@H](NC(=O)[C@H](CCc1ccccc1)NC(=O)CN1CCOCC1)C(=O)N[C@@H](Cc1ccccc1)C(=O)N[C@@H](CC(C)C)C(=O)[C@@]1(C)CO1", "note": "[CFZ, Carfilzomib]", "values": [
      {"measurement": "Kd", "result": 130, "unit": "nM"}
    ]}
  ]
}
